Results taken from paper PMC7354438 (Viruses, 2020).
Where a name gives a salt, the structure may show the parent alone.

test system: hCoV-19/Norway/Trondheim-E9/2020; experiment: Drug test: viability of SARS-CoV-2-infected Vero-E6 cells (CellTiter-Glo); type: cell-based; set-up: AUC: unit not given beside the values; details: 72 h

How did the AUC turn out when `CN[C@@H]1C[C@H]2O[C@@](C)([C@@H]1OC)n1c3ccccc3c3c4c(c5c6ccccc6n2c5c31)C(=O)NC4` [Staurosporine] was run?
Its AUC is 15,75.

How did the AUC turn out when `C[C@]12Cc3c[nH]nc3C[C@@H]1CC[C@@H]1[C@@H]2CC[C@@]2(C)[C@H]1CC[C@]2(C)O` [Stanozolol] was run?
The AUC was 161,7.

`COc1ccc2cc3[n+](cc2c1OC)CCc1cc2c(cc1-3)OCO2` [Berberine] was tested. Which AUC did it give?
The AUC was 236,67.

Which AUC does the source give for `Cc1ccc(C(=O)Nc2ccc(S(=O)(=O)O)c3cc(S(=O)(=O)O)cc(S(=O)(=O)O)c23)cc1NC(=O)c1cccc(NC(=O)Nc2cccc(C(=O)Nc3cc(C(=O)Nc4ccc(S(=O)(=O)O)c5cc(S(=O)(=O)O)cc(S(=O)(=O)O)c45)ccc3C)c2)c1` [Suramin] here?
Its AUC is 94,57.

With Chicoric acid as the molecule, how does the AUC read?
Its AUC is 93,1.

Which AUC does the source give for `CCCCCCCCCCNCCN[C@@]1(C)C[C@H](O[C@H]2[C@H](Oc3c4cc5cc3Oc3ccc(cc3Cl)[C@@H](O)[C@@H](NC(=O)[C@@H](CC(C)C)NC)C(=O)N[C@@H](CC(N)=O)C(=O)N[C@H]5C(=O)N[C@H]3C(=O)N[C@H](C(=O)N[C@H](C(=O)O)c5cc(O)c(CNCP(=O)(O)O)c(O)c5-c5cc3ccc5O)[C@H](O)c3ccc(c(Cl)c3)O4)O[C@H](CO)[C@@H](O)[C@@H]2O)O[C@@H](C)[C@H]1O` [Telavancin] here?
Its AUC is 139,65.

For Clomiprade hydrochloride, which AUC is on record?
Its AUC is 74,69.

With `Cc1cc(O)c2c(c1)C(=O)c1cc(O)cc(O)c1C2=O` [Emodin] as the molecule, how does the AUC read?
Its AUC is 170,24.

`CS(=O)(=O)O.Cc1ccc2c(c1)c1c3n2CCNC3CCC1` (stereo not shown) [Pirlindole mesylate] was tested. Which AUC did it give?
Its AUC is 120,4.

Which AUC does the source give for `COc1ccc(C[C@H]2NC[C@H](O)[C@H]2OC(C)=O)cc1` [Anisomycin] here?
Its AUC is 169,33.

For `CC[C@H](CO)Nc1nc(NCc2ccccc2)c2ncn(C(C)C)c2n1` [Roscovitine], which AUC is on record?
The AUC was 137,97.

For Ivermectin, which AUC is on record?
The AUC was 66,08.

With `C[C@H]1O[C@@H](O[C@H]2CC[C@@]3(C)[C@@H](CC[C@]4(C)[C@@H]3C=C[C@]35OC[C@@]6(CCC(C)(C)C[C@H]63)[C@@H](O)C[C@]54C)[C@]2(C)CO)[C@H](O)[C@@H](O[C@@H]2O[C@H](CO)[C@@H](O)[C@H](O)[C@H]2O)[C@H]1O` [Saikosaponin A] as the molecule, how does the AUC read?
The AUC was 77.

`CC(=O)O[C@H]1C[C@H](O[C@H]2[C@@H](O)C[C@H](O[C@H]3[C@@H](O)C[C@H](O[C@H]4CC[C@@]5(C)[C@H](CC[C@@H]6[C@@H]5C[C@@H](O)[C@]5(C)[C@@H](C7=CC(=O)OC7)CC[C@]65O)C4)O[C@@H]3C)O[C@@H]2C)O[C@H](C)[C@H]1O[C@@H]1O[C@H](CO)[C@@H](O)[C@H](O)[C@H]1O` [Lanatoside C] was tested. Which AUC did it give?
Its AUC is 54,25.

How did the AUC turn out when `CO[C@@]1(NC(=O)C(C(=O)[O-])c2ccc(O)cc2)C(=O)N2C(C(=O)[O-])=C(CSc3nnnn3C)CO[C@@H]21.[Na+].[Na+]` (stereo partly shown) [Moxalactam sodium salt] was run?
The AUC was 18,13.

Which AUC does the source give for `COc1ccc(CC(C)NCC(O)c2ccc(O)c(NC=O)c2)cc1` (stereo not shown) [Formoterol] here?
The AUC was 203,77.

`CC(C)OC(=O)[C@H](C)N[P@](=O)(OC[C@H]1O[C@@H](n2ccc(=O)[nH]c2=O)[C@](C)(F)[C@@H]1O)Oc1ccccc1` [PSI-7977 (Sofosbuvir), Sofosbuvir] was tested. Which AUC did it give?
Its AUC is 131,11.

`Oc1c(Cl)cc(Cl)c(Cl)c1Cc1c(O)c(Cl)cc(Cl)c1Cl` [Hexachlorophene] was tested. Which AUC did it give?
Its AUC is 122,15.

Which AUC does the source give for `CC1(C)[C@@H](O[C@H]2O[C@H](C(=O)O)[C@@H](O)[C@H](O)[C@H]2O[C@@H]2O[C@H](C(=O)O)[C@@H](O)[C@H](O)[C@H]2O)CC[C@]2(C)[C@H]3C(=O)C=C4[C@@H]5C[C@@](C)(C(=O)O)CC[C@]5(C)CC[C@@]4(C)[C@]3(C)CC[C@@H]12` [Glycyrrhizic acid (Glycyrrhizin), Glycyrrhizic acid] here?
The AUC was 235,76.

With `CCN(CC)C[C@@H](O)CNc1ccc(NC[C@H]2CO2)c2c1C(=O)c1ccccc1C2=O` [BDA-366] as the molecule, how does the AUC read?
The AUC was 174,3.

Pentosan polysulfate was tested. Which AUC did it give?
The AUC was 123,06.

Which AUC does the source give for Doxycycline hyclate here?
The AUC was 143,99.

same assay, conditions: area under the dose-response curve of viability of virus-infected Vero-E6 cells; moi 0.1; 72 h; 7 concentrations; decimal comma

For `CC(C)OC(=O)OCOP(=O)(CO[C@H](C)Cn1cnc2c(N)ncnc21)OCOC(=O)OC(C)C` [Tenofovir disoproxil fumarate], which AUC is on record?
Its AUC is 137,2.

With `CCC(C)n1ncn(-c2ccc(N3CCN(c4ccc(OCC5COC(Cn6cncn6)(c6ccc(Cl)cc6Cl)O5)cc4)CC3)cc2)c1=O` (stereo not shown) [Itraconazole] as the molecule, how does the AUC read?
Its AUC is 110,18.

For `Nc1ncnc2c([C@@H]3N[C@H](CO)[C@@H](O)[C@H]3O)c[nH]c12` [BCX4430 (galidesivir), galidesivir], which AUC is on record?
The AUC was 94,08.

How did the AUC turn out when `O=c1c(-c2ccc(O)cc2)coc2cc(O[C@@H]3O[C@H](CO)[C@@H](O)[C@H](O)[C@H]3O)cc(O)c12` [Genistin] was run?
Its AUC is 54,1.

For `CC(C)C(=O)OCC(=O)[C@@]12O[C@H](C3CCCCC3)O[C@@H]1C[C@H]1[C@@H]3CCC4=CC(=O)C=C[C@]4(C)[C@H]3[C@@H](O)C[C@@]12C` [Ciclesonide], which AUC is on record?
The AUC was 157,15.

Which AUC does the source give for `O=c1cc(-c2ccc(O)c(O)c2)oc2cc(O)cc(O)c12` [Luteolin] here?
Its AUC is 119,07.

`CC(C)[C@H](N)C(=O)OCCOCn1cnc2c(=O)[nH]c(N)nc21` [Valaciclovir] was tested. Which AUC did it give?
Its AUC is 134,61.

Which AUC does the source give for `CC/C(=C(\c1ccccc1)c1ccc(OCCN(C)C)cc1)c1ccccc1` [Tamoxifen] here?
Its AUC is 54,67.

With `Nc1nc(Cl)nc2c1ncn2[C@@H]1O[C@H](CO)[C@@H](O)[C@@H]1F` [Clofarabine] as the molecule, how does the AUC read?
The AUC was 112,42.

How did the AUC turn out when `CC(C)n1c(/C=C/C(O)CC(O)CC(=O)O)c(-c2ccc(F)cc2)c2ccccc21` (stereo not shown) [Fluvastatin] was run?
The AUC was 154,14.

How did the AUC turn out when `O=C1[C@H](CC[C@H](O)c2ccc(F)cc2)[C@@H](c2ccc(O)cc2)N1c1ccc(F)cc1` [Ezetimibe] was run?
The AUC was 138,39.

With `CCN(CC)CCCC(C)Nc1ccnc2cc(Cl)ccc12` (stereo not shown) [Chloroquine phosphate] as the molecule, how does the AUC read?
The AUC was 165,9.

Which AUC does the source give for `COc1cc2ncnc(Nc3ccc(F)c(Cl)c3)c2cc1OCCCN1CCOCC1` [Gefitinib] here?
Its AUC is 188,86.

With `Cc1cccc(C)c1OCC(=O)N[C@@H](Cc1ccccc1)[C@@H](O)C[C@H](Cc1ccccc1)NC(=O)[C@H](C(C)C)N1CCCNC1=O` [Lopinavir] as the molecule, how does the AUC read?
The AUC was 157,36.

Which AUC does the source give for `O=C1O[C@H]([C@@H](O)CO)C(O)=C1O` [Ascorbic acid] here?
Its AUC is 108,5.

How did the AUC turn out when `Nc1ccn([C@@H]2O[C@H](CO)[C@@H](O)C2(F)F)c(=O)n1` [Gemcitabine] was run?
The AUC was 92,89.

How did the AUC turn out when `Cc1nc(Nc2ncc(C(=O)Nc3c(C)cccc3Cl)s2)cc(N2CCN(CCO)CC2)n1` [Dasatinib] was run?
The AUC was 135,45.

How did the AUC turn out when `Nc1nc(O)c2ncn(COC(CO)CO)c2n1` [Ganciclovir] was run?
The AUC was 243,88.

How did the AUC turn out when `O=C(O)P(=O)(O)O` [Foscarnet] was run?
The AUC was 127,26.

Which AUC does the source give for `CCC(C)(C)C(=O)O[C@H]1C[C@@H](C)C=C2C=C[C@H](C)[C@H](CC[C@@H]3C[C@@H](O)CC(=O)O3)[C@H]21` [Simvastatin] here?
Its AUC is 163,03.

With `O=C(Nc1ccc([N+](=O)[O-])cc1Cl)c1cc(Cl)ccc1O` [Niclosamide] as the molecule, how does the AUC read?
Its AUC is 149,52.

How did the AUC turn out when `Cn1c(=O)c2c(ncn2C)n(C)c1=O` [Caffeine] was run?
Its AUC is 147,28.

For `CN(C)C(=N)N=C(N)N` [Metformin (1,1-Dimethylbiguanide), 1,1-Dimethylbiguanide], which AUC is on record?
The AUC was 116,76.

With `N=C(N)NC(=O)c1nc(Cl)c(N)nc1N` [Amiloride (EIPA)] as the molecule, how does the AUC read?
The AUC was 182,56.

`CCN(CC)CCOc1ccc2c(c1)C(=O)c1cc(OCCN(CC)CC)ccc1-2` [Tilorone (dihydrochloride), Tilorone] was tested. Which AUC did it give?
Its AUC is 83,72.

Which AUC does the source give for `CCCCCCCCCCCCCCCCOCCCOP(=O)(O)CO[C@H](CO)Cn1ccc(N)nc1=O` [Brincidofovir (CMX001), Brincidofovir] here?
The AUC was 126,49.

How did the AUC turn out when `CC(C)(C)c1cnc(CSc2cnc(NC(=O)C3CCNCC3)s2)o1` [SNS-032] was run?
Its AUC is 96,25.

How did the AUC turn out when `Nc1nc(=O)c2ncn([C@@H]3C[C@H](CO)[C@H]3CO)c2[nH]1` [Lobucavir] was run?
Its AUC is 153,65.

With `O=C(/C=C\n1cnc(-c2cc(C(F)(F)F)cc(C(F)(F)F)c2)n1)NNc1ccccn1` [Verdinexor] as the molecule, how does the AUC read?
The AUC was 83,93.

For `CC[C@@]1(O)C(=O)OCc2c1cc1n(c2=O)Cc2cc3c(CN(C)C)c(O)ccc3nc2-1` [Topotecan], which AUC is on record?
The AUC was 124,6.

How did the AUC turn out when `CC[C@H]1OC(=O)[C@H](C)[C@@H](O[C@H]2C[C@@](C)(OC)[C@@H](O)[C@H](C)O2)[C@H](C)[C@@H](O[C@@H]2O[C@H](C)C[C@H](N(C)C)[C@H]2O)[C@](C)(O)C[C@@H](C)CN(C)[C@H](C)[C@@H](O)[C@]1(C)O` [Azithromycin] was run?
Its AUC is 119,42.

`CN(C)c1ccc(O)c2c1C[C@H]1C[C@H]3[C@H](N(C)C)C(O)=C(C(N)=O)C(=O)[C@@]3(O)C(O)=C1C2=O` [Minocycline] was tested. Which AUC did it give?
Its AUC is 119,14.

`COc1ccc([C@@H]2Sc3ccccc3N(CCN(C)C)C(=O)[C@@H]2OC(C)=O)cc1` [Diltiazem] was tested. Which AUC did it give?
The AUC was 99,61.

With `COc1ccc2nc([S@@+]([O-])Cc3ncc(C)c(OC)c3C)[nH]c2c1` [Esomeprazole] as the molecule, how does the AUC read?
Its AUC is 177,52.

Which AUC does the source give for `CO[C@@H]1[C@@H](OC(N)=O)[C@@H](O)[C@H](Oc2ccc3c(O)c(NC(=O)c4ccc(O)c(CC=C(C)C)c4)c(=O)oc3c2C)OC1(C)C` [Novobiocin] here?
Its AUC is 100,73.

How did the AUC turn out when `CC(=O)Oc1ccccc1C(=O)Nc1ncc([N+](=O)[O-])s1` [Nitazoxanide] was run?
The AUC was 120,33.

With `CC(=O)N[C@@H](CS)C(=O)O` [Acetylcysteine] as the molecule, how does the AUC read?
Its AUC is 43,47.

`CN1[C@@H]2CC[C@H]1C[C@@H](OC(c1ccccc1)c1ccccc1)C2` [Benzatropine] was tested. Which AUC did it give?
Its AUC is 208,11.

`CC1=C(/C=C/C(C)=C/C=C/C(C)=C/C(=O)Nc2ccc(O)cc2)C(C)(C)CCC1` [Fenretinide (4-HPR), Fenretinide] was tested. Which AUC did it give?
Its AUC is 137,9.

How did the AUC turn out when `COC(=O)C1=C(C)NC(C)=C(C(=O)OCCN2CCN(C(c3ccccc3)c3ccccc3)CC2)C1c1cccc([N+](=O)[O-])c1` (stereo not shown) [Manidipine] was run?
The AUC was 133.

How did the AUC turn out when `CCn1cc(C(=O)O)c(=O)c2cc(F)c(N3CCNCC3)nc21` [Enoxacin] was run?
Its AUC is 118,23.

With `NC(=O)c1ncn([C@@H]2O[C@H](CO)[C@@H](O)[C@H]2O)n1` [Ribavirin] as the molecule, how does the AUC read?
Its AUC is 134,26.

Which AUC does the source give for `CN(C)CCOc1ccc(/C(=C(/CCCl)c2ccccc2)c2ccccc2)cc1` [Toremifene] here?
Its AUC is 27,02.

With `CC(=O)Oc1ccccc1C(=O)O` [Acetylsalicylic acid] as the molecule, how does the AUC read?
Its AUC is 131,04.

With `CC(C)c1nc(CN(C)C(=O)N[C@H](C(=O)N[C@@H](Cc2ccccc2)C[C@H](O)[C@H](Cc2ccccc2)NC(=O)OCc2cncs2)C(C)C)cs1` [Ritonavir] as the molecule, how does the AUC read?
Its AUC is 137,69.
